Calls of active or inactive are those of the source.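 How the source made its calls: active means phosphorylated EGFR protein level at least 30% below or above the solvent-only control; inactive means the rest.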
molecular target: Epidermal growth factor receptor (Homo sapiens) (UniProt P00533); experiment: change in phospho-EGFR levels, up or down, late-stage follow-up, counter-screen for KLF5 inhibitor project, DLD1 cells, chemiluminescent western blot, powder samples (AID 588613); conditions: DLD-1 cells, 24 h, at 10 µM, active compounds read high
Sequence (P00533 whole entry, looked up): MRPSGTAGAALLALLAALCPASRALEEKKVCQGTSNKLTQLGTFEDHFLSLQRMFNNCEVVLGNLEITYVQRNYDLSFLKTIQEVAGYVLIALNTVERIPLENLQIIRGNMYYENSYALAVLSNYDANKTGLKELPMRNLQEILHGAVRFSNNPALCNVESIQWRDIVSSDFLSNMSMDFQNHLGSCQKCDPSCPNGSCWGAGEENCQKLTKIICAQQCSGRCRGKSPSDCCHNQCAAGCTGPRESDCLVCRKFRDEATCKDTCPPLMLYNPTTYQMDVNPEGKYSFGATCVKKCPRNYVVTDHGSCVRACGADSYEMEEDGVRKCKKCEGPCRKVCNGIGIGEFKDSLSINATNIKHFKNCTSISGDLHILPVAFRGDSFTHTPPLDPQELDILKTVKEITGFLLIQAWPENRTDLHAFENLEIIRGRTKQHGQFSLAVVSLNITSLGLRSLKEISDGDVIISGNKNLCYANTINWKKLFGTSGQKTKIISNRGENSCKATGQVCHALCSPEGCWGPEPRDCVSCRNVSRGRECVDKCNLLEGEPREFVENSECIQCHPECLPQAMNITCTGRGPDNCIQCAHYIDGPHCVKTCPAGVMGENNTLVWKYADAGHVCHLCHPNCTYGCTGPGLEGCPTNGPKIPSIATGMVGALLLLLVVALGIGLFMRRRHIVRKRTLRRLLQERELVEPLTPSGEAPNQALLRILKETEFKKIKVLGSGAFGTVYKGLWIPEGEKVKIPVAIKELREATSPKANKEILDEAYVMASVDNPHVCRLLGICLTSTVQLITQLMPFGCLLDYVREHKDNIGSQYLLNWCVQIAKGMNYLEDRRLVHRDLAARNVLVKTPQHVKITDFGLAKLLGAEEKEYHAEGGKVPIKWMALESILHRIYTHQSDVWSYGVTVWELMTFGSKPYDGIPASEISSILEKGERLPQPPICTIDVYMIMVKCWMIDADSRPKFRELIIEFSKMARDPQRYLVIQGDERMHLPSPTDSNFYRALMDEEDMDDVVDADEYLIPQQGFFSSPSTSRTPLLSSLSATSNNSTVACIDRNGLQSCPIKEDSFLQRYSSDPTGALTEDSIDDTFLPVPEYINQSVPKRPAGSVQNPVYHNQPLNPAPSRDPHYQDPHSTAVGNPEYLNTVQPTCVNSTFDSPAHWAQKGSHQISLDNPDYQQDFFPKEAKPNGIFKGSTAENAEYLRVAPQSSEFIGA

| Compound | inhibition |
| --- | --- |
| CN(C(=O)COC(=O)/C=C/c1cccc([N+](=O)[O-])c1)C1CCS(=O)(=O)C1 (stereo not drawn) | 28.2% (inactive) |
| CN(C(=O)CNC(=O)/C=C/c1cccc(Cl)c1)C1CCS(=O)(=O)C1 (stereo not drawn) | 60.7% |
| CN(C(=O)CNC(=O)/C=C/c1cccc(Cl)c1)C1CCS(=O)(=O)CC1 | 46.8% |
